Reference: ChEMBL document CHEMBL3885881, “DrugMatrix”

Organism: Rattus norvegicus
Assay: DrugMatrix - Regimen: Daily Repeat
Assay type: toxicity, organism-based, Sprague-Dawley
Design: regimen Daily Repeat, gender Male, age 6-8 weeks
Conditions: in vivo, po, route oral GAVAGE, vehicle 100 % SALINE; for GLUCOSE / LACTATE DEHYDROGENASE / LIPASE / PHOSPHORUS / SODIUM / TOTAL BILIRUBIN / TOTAL PROTEIN / ALANINE AMINOTRANSFERASE / ALBUMIN / ALKALINE PHOSPHATASE / ASPARTATE AMINOTRANSFERASE / BLOOD UREA NITROGEN / CARBON DIOXIDE / CHLORIDE / CHOLESTEROL / CREATINE PHOSPHOKINASE / CREATININE: tissue Plasma; for ABSOLUTE BASOPHIL / ABSOLUTE EOSINOPHIL / ABSOLUTE LYMPHOCYTE / ABSOLUTE MONOCYTE / ABSOLUTE SEGMENTED NEUTROPHIL / BASOPHIL / EOSINOPHIL / ERYTHROCYTE COUNT / HEMATOCRIT / HEMOGLOBIN / LEUKOCYTE COUNT / LYMPHOCYTE / MEAN CORPUSCULAR HEMOGLOBIN / MEAN CORPUSCULAR HEMOGLOBIN CONCENTRATION / MONOCYTE / NEUTROPHIL / NUCLEATED RED BLOOD CELLS / PLATELET COUNT: tissue Blood
[1] = 0 mg/kg, […], dose level Control, time 7 day
[2] = 140 mg/kg, 72 h, dose level Low, time 3 day
[3] = 140 mg/kg, 120 h, dose level Low, time 5 day
[4] = 700 mg/kg, 72 h, dose level Low, time 3 day

For `CN(C)C=O` [DIMETHYLFORMAMIDE], which GLUCOSE [1] is on record?
Its GLUCOSE is 132.67 mg/dL.

What about the “LACTATE DEHYDROGENASE” value [1] of the same compound?
Its value is 107.17 u/L.

What about the LIPASE [1] of the same compound?
The LIPASE was 10.5 u/L.

What about the PHOSPHORUS [1] of the same compound?
The PHOSPHORUS was 10.47 mg/dL.

What about the SODIUM [1] of the same compound?
Its SODIUM is 140.73 MEQ/L.

And the “TOTAL BILIRUBIN” value [1]?
Its value is 0.12 mg/dL.

And the “TOTAL PROTEIN” value [1]?
Its value is 6.18 G/DL.

What about the “ABSOLUTE BASOPHIL” value [2] of the same compound?
Its value is 0 CELLS/uL.

And the “ABSOLUTE EOSINOPHIL” value [2]?
The value was 31.33 CELLS/uL.

And the “ABSOLUTE LYMPHOCYTE” value [2]?
Its value is 5899.33 CELLS/uL.

And the “ABSOLUTE MONOCYTE” value [2]?
The value was 62.67 CELLS/uL.

What about the “ABSOLUTE SEGMENTED NEUTROPHIL” value [2] of the same compound?
The value was 306.67 CELLS/uL.

What about the BASOPHIL [2] of the same compound?
Its BASOPHIL is 0%.

What about the EOSINOPHIL [2] of the same compound?
The EOSINOPHIL was 0.33%.

What about the “ERYTHROCYTE COUNT” value [2] of the same compound?
The value was 4.99 x10E6/uL.

And the HEMATOCRIT [2]?
The HEMATOCRIT was 31.43%.

What about the HEMOGLOBIN [2] of the same compound?
Its HEMOGLOBIN is 12.53 G/DL.

What about the “LEUKOCYTE COUNT” value [2] of the same compound?
The value was 6.3 x10E3/uL.

And the LYMPHOCYTE [2]?
Its LYMPHOCYTE is 94.67%.

And the “MEAN CORPUSCULAR HEMOGLOBIN” value [2]?
The value was 25.27 pg.

And the “MEAN CORPUSCULAR HEMOGLOBIN CONCENTRATION” value [2]?
The value was 40.07 G/DL.

What about the MONOCYTE [2] of the same compound?
Its MONOCYTE is 0.67%.

And the NEUTROPHIL [2]?
The NEUTROPHIL was 4.33%.

And the “NUCLEATED RED BLOOD CELLS” value [2]?
Its value is 0 /100WBC.

What about the “PLATELET COUNT” value [2] of the same compound?
The value was 734 x10E3/uL.

What about the “ALANINE AMINOTRANSFERASE” value [2] of the same compound?
The value was 52.67 u/L.

And the ALBUMIN [2]?
Its ALBUMIN is 4.17 G/DL.

What about the “ALKALINE PHOSPHATASE” value [2] of the same compound?
Its value is 264.67 u/L.

What about the “ASPARTATE AMINOTRANSFERASE” value [2] of the same compound?
Its value is 88.67 u/L.

What about the “BLOOD UREA NITROGEN” value [2] of the same compound?
Its value is 12.33 mg/dL.

What about the “CARBON DIOXIDE” value [2] of the same compound?
Its value is 36.67 mmol/L.

What about the CHLORIDE [2] of the same compound?
The CHLORIDE was 97.33 MEQ/L.

And the CHOLESTEROL [2]?
Its CHOLESTEROL is 97.67 mg/dL.

And the “CREATINE PHOSPHOKINASE” value [2]?
The value was 161.33 u/L.

And the CREATININE [2]?
The CREATININE was 0.33 mg/dL.

And the GLUCOSE [2]?
Its GLUCOSE is 208 mg/dL.

What about the “LACTATE DEHYDROGENASE” value [2] of the same compound?
Its value is 181.33 u/L.

What about the LIPASE [2] of the same compound?
The LIPASE was 10.67 u/L.

And the PHOSPHORUS [2]?
Its PHOSPHORUS is 11.23 mg/dL.

And the SODIUM [2]?
The SODIUM was 148.43 MEQ/L.

What about the “TOTAL BILIRUBIN” value [2] of the same compound?
Its value is 0.2 mg/dL.

What about the “TOTAL PROTEIN” value [2] of the same compound?
The value was 6.1 G/DL.

What about the “ABSOLUTE BASOPHIL” value [3] of the same compound?
Its value is 0 CELLS/uL.

What about the “ABSOLUTE EOSINOPHIL” value [3] of the same compound?
Its value is 0 CELLS/uL.

And the “ABSOLUTE LYMPHOCYTE” value [3]?
The value was 9653 CELLS/uL.

And the “ABSOLUTE MONOCYTE” value [3]?
The value was 169 CELLS/uL.

What about the “ABSOLUTE SEGMENTED NEUTROPHIL” value [3] of the same compound?
The value was 644.67 CELLS/uL.

What about the BASOPHIL [3] of the same compound?
The BASOPHIL was 0%.

And the EOSINOPHIL [3]?
Its EOSINOPHIL is 0%.

What about the “ERYTHROCYTE COUNT” value [3] of the same compound?
The value was 6.77 x10E6/uL.

What about the HEMATOCRIT [3] of the same compound?
The HEMATOCRIT was 41.07%.

And the HEMOGLOBIN [3]?
Its HEMOGLOBIN is 15.33 G/DL.

And the “LEUKOCYTE COUNT” value [3]?
Its value is 10.47 x10E3/uL.

What about the LYMPHOCYTE [3] of the same compound?
The LYMPHOCYTE was 93.33%.

What about the “MEAN CORPUSCULAR HEMOGLOBIN” value [3] of the same compound?
The value was 22.63 pg.

What about the “MEAN CORPUSCULAR HEMOGLOBIN CONCENTRATION” value [3] of the same compound?
Its value is 37.33 G/DL.

And the MONOCYTE [3]?
The MONOCYTE was 1.67%.

What about the NEUTROPHIL [3] of the same compound?
The NEUTROPHIL was 5%.

And the “NUCLEATED RED BLOOD CELLS” value [3]?
Its value is 0 /100WBC.

What about the “PLATELET COUNT” value [3] of the same compound?
The value was 1170.67 x10E3/uL.

And the “ALANINE AMINOTRANSFERASE” value [3]?
The value was 57.33 u/L.

What about the ALBUMIN [3] of the same compound?
Its ALBUMIN is 4.4 G/DL.

What about the “ALKALINE PHOSPHATASE” value [3] of the same compound?
The value was 234.67 u/L.

What about the “ASPARTATE AMINOTRANSFERASE” value [3] of the same compound?
The value was 93.67 u/L.

And the “BLOOD UREA NITROGEN” value [3]?
The value was 17.67 mg/dL.

And the “CARBON DIOXIDE” value [3]?
Its value is 34.33 mmol/L.

And the CHLORIDE [3]?
Its CHLORIDE is 96.33 MEQ/L.

And the CHOLESTEROL [3]?
The CHOLESTEROL was 111.33 mg/dL.

And the “CREATINE PHOSPHOKINASE” value [3]?
The value was 195.67 u/L.

And the CREATININE [3]?
The CREATININE was 0.19 mg/dL.

And the GLUCOSE [3]?
Its GLUCOSE is 171.33 mg/dL.

And the “LACTATE DEHYDROGENASE” value [3]?
The value was 243 u/L.

And the LIPASE [3]?
The LIPASE was 11.33 u/L.

And the PHOSPHORUS [3]?
Its PHOSPHORUS is 10.83 mg/dL.

And the SODIUM [3]?
Its SODIUM is 145.97 MEQ/L.

And the “TOTAL BILIRUBIN” value [3]?
Its value is 0.13 mg/dL.

And the “TOTAL PROTEIN” value [3]?
Its value is 6.67 G/DL.

What about the “ABSOLUTE BASOPHIL” value [4] of the same compound?
Its value is 0 CELLS/uL.

What about the “ABSOLUTE EOSINOPHIL” value [4] of the same compound?
The value was 0 CELLS/uL.

What about the “ABSOLUTE LYMPHOCYTE” value [4] of the same compound?
Its value is 7783.67 CELLS/uL.

And the “ABSOLUTE MONOCYTE” value [4]?
The value was 176.17 CELLS/uL.

And the “ABSOLUTE SEGMENTED NEUTROPHIL” value [4]?
The value was 1123.5 CELLS/uL.

What about the BASOPHIL [4] of the same compound?
Its BASOPHIL is 0%.

What about the EOSINOPHIL [4] of the same compound?
The EOSINOPHIL was 0%.

And the “ERYTHROCYTE COUNT” value [4]?
The value was 5.7 x10E6/uL.

And the HEMATOCRIT [4]?
The HEMATOCRIT was 37.75%.

And the HEMOGLOBIN [4]?
Its HEMOGLOBIN is 13.52 G/DL.

And the “LEUKOCYTE COUNT” value [4]?
The value was 9.08 x10E3/uL.

What about the LYMPHOCYTE [4] of the same compound?
Its LYMPHOCYTE is 86.17%.

And the “MEAN CORPUSCULAR HEMOGLOBIN” value [4]?
The value was 23.73 pg.

What about the “MEAN CORPUSCULAR HEMOGLOBIN CONCENTRATION” value [4] of the same compound?
Its value is 35.83 G/DL.

And the MONOCYTE [4]?
The MONOCYTE was 1.83%.

And the NEUTROPHIL [4]?
Its NEUTROPHIL is 12%.

And the “NUCLEATED RED BLOOD CELLS” value [4]?
Its value is 0 /100WBC.

What about the “PLATELET COUNT” value [4] of the same compound?
The value was 951.67 x10E3/uL.

And the “ALANINE AMINOTRANSFERASE” value [4]?
The value was 77.33 u/L.
